Source: patent publication US12310946B2, “Pharmaceutical composition for oral administration of edaravone and method of administering same” (MITSUBISHI TANABE PHARMA CORPORATION, priority 2020, dated 2025)
Like-named read-outs stand apart in the source and are kept apart here.

Columns and labels:
[1] = Clinical study #5: PK of edaravone oral formulation (formula #3) in ALS patients, oral, fasted; format: in vivo, human; conditions: for difference in the AUC between the patient group and the reference group / difference in the Cmax between the patient group and the reference group: ALS patients oral vs healthy oral; for Cmax: po, 105 mg
Protocol: To evaluate the pharmacokinetics of edaravone in ALS patients, a clinical study #5 shown below was conducted in ALS patients who can live daily life independently (the patient group).
The edaravone oral formulation was administered orally to the patient group in fasted conditions after a lapse of 10 hours or longer from consumption of a meal. In the patient group, ALS patients who had been already administered with an edaravone intravenous infusion formulation were orally administered with the edaravone oral formulation after a lapse of 48 hours or longer from the time of completion of the previous administration of the intravenous infusion formulation. The same edaravone oral formulation as the formula #3 in Table 1 above was used. Then, blood samples were each collected before the administration, and 5 minutes, 15 minutes, 30 minutes, 45 minutes, 1 hour, 1.5 hours, 2 hours, 4 hours, 6 hours, 8 hours, 10 hours, 12 hours, and 24 hours after the administration, and the concentrations of unchanged edaravone in plasma were measured.
The resulting PK parameters were corrected for body weight of each subject adjusted to 70 kg by a proportional calculation for each of the patient group and the reference group. In addition, the results of the PK parameters after correction of the patient group are shown as box-whisker plots of #9 (the reference group), and individual plots of #5 (the patient group) and #9 (the reference group) in FIG. 3. In FIG. 3, X represents a mean value. […] Thus, the difference in the Cmax and the difference in the AUC before weight correction between the patient group and the reference group seen in Table 9 below are considered due to the difference in body weight between the patient group and the reference group, and the difference in the Cmax and the difference in the AUC after weight correction between the patient group and the reference group observed in FIG. 3 are each considered to be within the range of error.

[2] = Oxidation of edaravone depending on pH; format: physicochemical; conditions: dependence on pH
[3] = Clinical study #4: PK of edaravone oral formulation (formula #2), high-fat meal 1 hour after administration vs fasted; format: in vivo, human; conditions: 100 mg oral; for partial AUC / AUC(0-inf) / Cmax / Tmax / half-life: male, human, plasma, po, 100 mg; for AUC(0-inf) / Cmax / Tmax / half-life: mean (n = 9)
Protocol: Effects of meal consumption 1 hour after administration of the edaravone oral formulation on the pharmacokinetics of edaravone were evaluated. Specifically, a clinical study #4 described below was conducted on the same subjects in Japanese healthy adult male subjects. In the clinical study #4, the edaravone oral formulation of the formula #2 in Table 1 above was used and administered orally once during the study period. In addition, the same high-fat meal as that used in Example 1 above was used.
As a post-administration consumption group, the same subjects in fasted conditions after a lapse of 10 hours or longer from meal consumption were orally administered with the edaravone oral formulation, and the high-fat meal was consumed 1 hour after the administration. Blood samples were each collected before the administration, and 5 minutes, 15 minutes, 30 minutes, 1 hour, 1.5 hours, 2 hours, 4 hours, 6 hours, 8 hours, 12 hours, 24 hours, 36 hours, and 48 hours after the administration, and the concentrations of unchanged edaravone in plasma were measured. The consumption of the high-fat meal 1 hour after the administration was carried out after the blood sample collection 1 hour after the administration, and a subsequent meal was not consumed until the blood sample collection 4 hours after the administration was completed. On the other hand, as a fasted group for reference, the edaravone oral formulation was administered orally to the same subjects in fasted conditions, blood samples were collected, and the concentrations of unchanged edaravone in plasma were measured in the same manner.
In addition, the AUC0-∞ after the administration of the edaravone oral formulation was evaluated separately on the results from 0 hour to 1 hour after the administration (0 to 1 h, before the consumption of a meal resumed after the administration) (AUC0-1h) and the results 1 hour after the administration (1 h to ∞ h, after the consumption of a meal resumed after the administration) (AUC1h-∞) for the post-administration consumption group (1 h before high-fat meal) and the fasted group (Fasted).

[4] = Clinical study #6: PK of edaravone oral formulation (formula #3) via PEG tube in ALS patients; format: in vivo, human; conditions: for Cmax: 105 mg
Protocol: Pharmacokinetics of edaravone in administration of the edaravone oral formulation via a PEG tube was evaluated. Specifically, a clinical study #6 described below was conducted in ALS patients with a percutaneous endoscopic gastrostomy tube (PEG tube) (the patient group).
The edaravone oral formulation was administered via a PEG tube to the patient group in fasted conditions after a lapse of 10 hours or longer from consumption of a meal. That is, first, 100 mL of lukewarm water was injected through a PEG tube 1 hour before the administration of the edaravone oral formulation, and 10 mL of lukewarm water was injected through a PEG tube immediately before the administration. Then, the edaravone oral formulation was administered to the PEG tube, and further 10 mL of water was injected through the PEG tube three times to wash in the edaravone oral formulation. In the patient group, ALS patients who had been already administered with an edaravone intravenous infusion formulation were administered with the edaravone oral formulation via a PEG tube after a lapse of 48 hours or longer from the time of completion of the previous administration of the intravenous infusion formulation. Blood samples were each collected before the administration, and 15 minutes, 30 minutes, 1 hour, 2 hours, 4 hours, 8 hours, and 24 hours after the administration, and the concentrations of unchanged edaravone in plasma were measured. […] For the reference example, the results of the reference group in Example 4, in which the edaravone oral formulation of the same formula #3 was administered orally and blood samples were collected, were utilized.
The resulting PK parameters were corrected for body weight of each subject in the patient group adjusted to 70 kg by a proportional calculation. In addition, the results of the PK parameters after correction of the patient group are shown in individual plots as #6 in FIG. 3. A comparison was made between the patient group administered via a PEG tube in Table 10 below and the reference group administered orally in Table 9 above. […] Thus, the difference in the Cmax and the difference in the AUC before weight correction between the patient group administered via a PEG tube and the reference group administered orally seen in Table 10 below are considered due to the difference in body weight between the patient group administered via a PEG tube and the reference group administered orally, and the difference in the Cmax and the difference in the AUC after weight correction between the patient group administered via a PEG tube and the reference group administered orally seen in FIG. 3 are each considered to be within the range of error.

[5] = after weight correction (70 kg)
[6] = human, plasma, 105 mg oral, fasted, ALS patients (n = 9), mean, before weight correction
[7] = 1 h before high-fat meal vs fasted
[8] = high-fat meal 1 hour after administration vs fasted
[9] = formula #2, 1 h before high-fat meal
[10] = human, plasma, 105 mg via PEG tube, fasted, ALS patients, mean, before weight correction

difference in the AUC between the patient group and the reference group [1, 5]: 5.8%
difference in the Cmax between the patient group and the reference group [1, 5]: 9.8%
difference in the AUC between the patient group and the reference group ([1]; before weight correction): 1.5%
difference in the Cmax between the patient group and the reference group ([1]; before weight correction): 15%
Cmax ([1]; human, plasma, 105 mg oral, ALS patients, corrected to 70 kg, read-out: Cmax after weight correction, mean value±standard error): 1610 ± 231 ng/mL
Cmax ([1]; human, plasma, 105 mg oral, fasted, ALS patients (n = 9), mean, before weight correction, read-out: Cmax): 1900 ng/mL
AUC ([1]; human, plasma, 105 mg oral, ALS patients, corrected to 70 kg, read-out: AUC after weight correction, mean value±standard error): 1460 ± 166 ng·h/mL
AUC(0-inf) [1, 6]: 1740 ng·h/mL
Tmax [1, 6]: 18.6 min
change in the AUC0-1h in comparison with fasted [3, 7]: slight decrease
change in the AUC1h-∞ in comparison with fasted [3, 7]: no change
change in the AUC in comparison with fasted [3, 7]: →
change in the Cmax in comparison with fasted [3, 7]: →
decrease in the AUC in comparison with the fasted group [3, 8]: about 10.4%
decrease in the Cmax in comparison with the fasted group [3, 8]: about 17.0%
partial AUC ([3]; 1 h before high-fat meal (n = 9), read-out: AUC0-1h): 772 ± 519 ng·h/mL
partial AUC ([3]; 1 h before high-fat meal (n = 9), read-out: AUC1h-∞): 703 ± 202 ng·h/mL
partial AUC ([3]; fasted (n = 9), read-out: AUC0-1h): 890 ± 349 ng·h/mL
partial AUC ([3]; fasted (n = 9), read-out: AUC1h-∞): 756 ± 232 ng·h/mL
AUC(0-inf) [3, 9]: 1480 ng·h/mL
Cmax [3, 9]: 1500 ng/mL
Tmax [3, 9]: 36 min
half-life [3, 9]: 579 min
AUC(0-inf) ([3]; formula #2, fasted): 1650 ng·h/mL
Cmax ([3]; formula #2, fasted): 1810 ng/mL
Tmax ([3]; formula #2, fasted): 21.6 min
half-life ([3]; formula #2, fasted): 560 min
difference in the AUC between the patient group administered via a PEG tube and the reference group administered orally [4, 5]: 9.5%
difference in the Cmax between the patient group administered via a PEG tube and the reference group administered orally [4, 5]: 8.3%
difference in the AUC between the patient group administered via a PEG tube and the reference group administered orally ([4]; before weight correction): 33%
difference in the Cmax between the patient group administered via a PEG tube and the reference group administered orally ([4]; before weight correction): 30%
Cmax ([4]; human, plasma, 105 mg via PEG tube, ALS patients, corrected to 70 kg, read-out: Cmax after weight correction, mean value±standard error): 1580 ± 251 ng/mL
Cmax ([4]; human, plasma, 105 mg via PEG tube, fasted, ALS patients, mean, before weight correction, read-out: Cmax): 2160 ng/mL
AUC ([4]; human, plasma, 105 mg via PEG tube, ALS patients, corrected to 70 kg, read-out: AUC after weight correction, mean value±standard error): 1700 ± 228 ng·h/mL
AUC(0-inf) [4, 10]: 2340 ng·h/mL
Tmax [4, 10]: 19.8 min
Structure (SMILES): CC1=NN(c2ccccc2)C(=O)C1 [Edaravone, 3-methyl-1-phenyl-2-pyrazolin-5-one]
oxidation of edaravone [2]: accelerated at a pH of 2.5 or lower and at a pH of 6.0 or higher
